The test system of data set [1] is Mtb. 331/88 and three non-tuberculous mycobacterial strains. Kind of data set: Antimycobacterial activity. In kind it is cell-based. The settings on record: statement over four mycobacterial strains; time not stated.
The test system of data set [2] is methicillin-resistant Staphylococcus aureus ATCC 43300, CCM 4750 (MRSA). Put plainly: Antibacterial microdilution broth method, MRSA. In kind it is cell-based. To be noted: Staphylococcus aureus. On the technique in general: Broth dilution looks for growth in wells or tubes with falling amounts of substance.
The test system of a further data set is eight fungal strains. Put plainly: Antifungal activity. The data set is classed as cell-based. To be noted: statement over the fungal panel; time not stated. In outline: (§1)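 Broth microdilution, EUCAST, modified. Medium: RPMI-1640 + L-glutamine + 2% glucose, MOPS pH 7.0; compounds from DMSO, twofold series. Visual MIC, duplicates, ≤1-step discrepancy accepted.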

A further data set deals with Candida glabrata 20/I. Put plainly: Antifungal microdilution broth method, C. glabrata. In kind it is cell-based. To be noted: Nakaseomyces glabratus. In outline:
as §1

The subject of data set [3] is four Gram-positive and four Gram-negative strains. Kind of data set: Antibacterial activity. To be noted: statement over the bacterial panel; time not stated. The data set is classed as cell-based.
Data set [4] deals with Mycobacterium kansasii 235/80. Put plainly: Antimycobacterial micromethod in Šula's medium, M. kansasii 235/80. The data set is classed as cell-based.
The test system of data set [5] is Klebsiella pneumoniae D 11750/08. Put plainly: Antibacterial microdilution broth method, K. pneumoniae. To be noted: K. pneumoniae D 11750/08.

SMILES strings stand for the structures. In brackets after ≈: the same amount, converted by molar mass. Read-outs that look alike come from different tables or passages of the source.

`O=C(O)c1ccc(NCc2ccccc2O)cc1` [1u, 4-[(2-Hydroxybenzyl)amino]benzoic acid]: the “MIC, antimycobacterial activity” value in data set [1] is “only negligible antimycobacterial activity”. Moreover, the MIC in data set [2] (24 h incubation, read-out: MIC MRSA 24 h) was over 500 µM; in data set [2] (48 h incubation, read-out: MIC MRSA 48 h) it was over 500 µM; in the data set with Candida glabrata 20/I (24 h, read-out: MIC CG 24 h), over 500 µM; in the data set on Candida glabrata 20/I (48 h, read-out: MIC CG 48 h), over 500 µM; in data set [4] (235/80, 168 h, 7 days incubation at 37 °C, read-out: MIC M. kansasii 235/80 7 d) it was 1000 µM (≈ 243 µg/mL); in data set [4] (235/80, 336 h, 14 days incubation at 37 °C, read-out: MIC M. kansasii 235/80 14 d), 1000 µM (≈ 243 µg/mL). Also, the MIC in data set [4] (235/80, 504 h, 21 days incubation at 37 °C, read-out: MIC M. kansasii 235/80 21 d) was determined as 1000 µM (≈ 243 µg/mL). The “MIC, antifungal activity” value with eight fungal strains is listed as “no antimycotic potency”. Further, the “MIC, antibacterial activity” value in data set [3] is given as “avoided any antibacterial action”. For the same molecule, the “MIC KP 24 h” value in data set [5] (24 h incubation) is on record as over 500 µM. For the same molecule, the “MIC KP 48 h” value in data set [5] (48 h incubation) was over 500 µM.

Values taken from article PMC7023430, “4-Aminobenzoic Acid Derivatives: Converting Folate Precursor to Antimicrobial and Cytotoxic Agents” (Biomolecules, 2019).
